Measurements from article PMC5218480 (PLoS ONE, 2017).

Tested on: MV-4-11 cells
Experiment: Gene expression microarray analysis (Affymetrix PrimeView) and GSEA
Format: cell-based, human
Design: RFU PODN (11730768_x_at) / Fold change /veh PODN (11730768_x_at) / RFU LINC00158 (11744669_a_at) / Fold change /veh LINC00158 (11744669_a_at) / RFU DUSP10 (11751237_a_at) / Fold change /veh DUSP10 (11751237_a_at) / RFU ID3 (11757404_x_at) / Fold change /veh ID3 (11757404_x_at) / RFU PLEKHG5 (11737974_s_at) / Fold change /veh PLEKHG5 (11737974_s_at) / RFU LRRC4B (11730491_at) / Fold change /veh LRRC4B (11730491_at) / RFU GIMAP4 (11747438_a_at) / Fold change /veh GIMAP4 (11747438_a_at) / RFU KRT8 (11758183_x_at) / Fold change /veh KRT8 (11758183_x_at) / RFU CNN1 (11734310_a_at) / Fold change /veh CNN1 (11734310_a_at) / RFU VPS37D (11726825_at) / Fold change /veh VPS37D (11726825_at) / RFU C10orf10 (11716522_x_at) / Fold change /veh C10orf10 (11716522_x_at) / RFU KIR2DL2 /// KIR2DL4 /// KIR2DL5A /// KIR2DL5B /// KIR2DS1 /// KIR2DS2 /// KIR2DS3 /// KIR2DS4 /// KIR3DL3 /// KIR3DL3 /// KIR3DS1 (11738374_at) / Fold change /veh KIR2DL2 /// KIR2DL4 /// KIR2DL5A /// KIR2DL5B /// KIR2DS1 /// KIR2DS2 /// KIR2DS3 /// KIR2DS4 /// KIR3DL3 /// KIR3DL3 /// KIR3DS1 (11738374_at) / RFU C1QL1 (11718748_at) / Fold change /veh C1QL1 (11718748_at) / RFU TMPRSS4 (11747572_a_at) / Fold change /veh TMPRSS4 (11747572_a_at) / RFU HAMP (11756126_x_at) / Fold change /veh HAMP (11756126_x_at) / RFU RNFT2 (11725882_a_at) / Fold change /veh RNFT2 (11725882_a_at) / RFU NR4A2 (11747474_a_at) / Fold change /veh NR4A2 (11747474_a_at) / RFU ABCC12 (11746883_a_at) / Fold change /veh ABCC12 (11746883_a_at) / RFU TMEM136 (11760407_x_at) / Fold change /veh TMEM136 (11760407_x_at) / RFU CLDN22 /// WWC2 (11732394_at) / Fold change /veh CLDN22 /// WWC2 (11732394_at) / RFU HLA-DPB1 (11760878_x_at) / Fold change /veh HLA-DPB1 (11760878_x_at) / RFU SPINT1 (11716480_a_at) / Fold change /veh SPINT1 (11716480_a_at) / RFU GAP43 (11754022_s_at) / Fold change /veh GAP43 (11754022_s_at) / RFU A4GNT (11735810_at) / Fold change /veh A4GNT (11735810_at) / RFU PRB3 (11715151_x_at) / Fold change /veh PRB3 (11715151_x_at) / RFU TUBB4B (11761932_at) / Fold change /veh TUBB4B (11761932_at) / RFU CAPN14 (11732068_a_at) / Fold change /veh CAPN14 (11732068_a_at) / RFU TMCC2 (11721928_a_at) / Fold change /veh TMCC2 (11721928_a_at) / RFU IRGQ (11745062_a_at) / Fold change /veh IRGQ (11745062_a_at) / RFU FAM174B (11720279_a_at) / Fold change /veh FAM174B (11720279_a_at) / RFU TMPRSS4 (11748680_a_at) / Fold change /veh TMPRSS4 (11748680_a_at) / RFU FAM212B (11763350_a_at) / Fold change /veh FAM212B (11763350_a_at) / RFU PLEKHG5 (11743358_a_at) / Fold change /veh PLEKHG5 (11743358_a_at) / RFU ZSCAN30 (11745921_a_at) / Fold change /veh ZSCAN30 (11745921_a_at) / RFU CMKLR1 (11741424_a_at) / Fold change /veh CMKLR1 (11741424_a_at) / RFU LOC101060620 /// MAPK8IP1 (11723275_at) / Fold change /veh LOC101060620 /// MAPK8IP1 (11723275_at) / RFU SPTSSB (11747773_x_at) / Fold change /veh SPTSSB (11747773_x_at) / RFU PRSS12 (11739890_at) / Fold change /veh PRSS12 (11739890_at) / RFU BIN1 (11741810_x_at) / Fold change /veh BIN1 (11741810_x_at) / RFU WNT11 (11732464_a_at) / Fold change /veh WNT11 (11732464_a_at) / RFU C10orf10 (11716521_a_at) / Fold change /veh C10orf10 (11716521_a_at) / RFU C5orf56 (11738089_at) / Fold change /veh C5orf56 (11738089_at) / RFU CYB561 (11721691_x_at) / Fold change /veh CYB561 (11721691_x_at) / RFU ANKRD19P (11752326_a_at) / Fold change /veh ANKRD19P (11752326_a_at) / RFU OR2T12 /// OR2T33 /// OR2T8 (11738714_s_at) / Fold change /veh OR2T12 /// OR2T33 /// OR2T8 (11738714_s_at) / RFU VCAN (11748164_a_at) / Fold change /veh VCAN (11748164_a_at) / RFU JSRP1 (11732532_at) / Fold change /veh JSRP1 (11732532_at) / RFU KRTAP10-11 (11738290_x_at) / Fold change /veh KRTAP10-11 (11738290_x_at) / RFU MYO3A (11730013_a_at) / Fold change /veh MYO3A (11730013_a_at) / RFU EBF3 (11725865_a_at) / Fold change /veh EBF3 (11725865_a_at) / RFU CAMK2N1 (11719241_x_at) / Fold change /veh CAMK2N1 (11719241_x_at) / RFU C5orf56 (11738088_a_at) / Fold change /veh C5orf56 (11738088_a_at) / RFU OLFML3 (11715873_a_at) / Fold change /veh OLFML3 (11715873_a_at) / RFU LOC100653217 /// NTM (11731650_a_at) / Fold change /veh LOC100653217 /// NTM (11731650_a_at) / RFU MAPK11 (11762145_a_at) / Fold change /veh MAPK11 (11762145_a_at) / RFU FIZ1 (11724087_x_at) / Fold change /veh FIZ1 (11724087_x_at) / RFU OASL (11726364_x_at) / Fold change /veh OASL (11726364_x_at) / RFU SOX15 (11748057_x_at) / Fold change /veh SOX15 (11748057_x_at) / RFU CD79A (11719716_a_at) / Fold change /veh CD79A (11719716_a_at) / RFU HIST1H1D (11736915_at) / Fold change /veh HIST1H1D (11736915_at) / RFU CASKIN2 (11723855_a_at) / Fold change /veh CASKIN2 (11723855_a_at) / RFU LOC730098 (11760151_x_at) / Fold change /veh LOC730098 (11760151_x_at) / RFU OR4N2 (11742367_at) / Fold change /veh OR4N2 (11742367_at) / RFU PRRT2 (11749266_a_at) / Fold change /veh PRRT2 (11749266_a_at) / RFU SNX32 (11753110_a_at) / Fold change /veh SNX32 (11753110_a_at) / RFU CDHR5 (11726645_a_at) / Fold change /veh CDHR5 (11726645_a_at) / RFU RCAN1 (11760418_a_at) / Fold change /veh RCAN1 (11760418_a_at) / RFU FAM167A (11723789_a_at) / Fold change /veh FAM167A (11723789_a_at) / RFU FAM26E (11764081_at) / Fold change /veh FAM26E (11764081_at) / RFU ISYNA1 (11749810_s_at) / Fold change /veh ISYNA1 (11749810_s_at) / RFU ACY1 (11761880_at) / Fold change /veh ACY1 (11761880_at) / RFU 11764098_at / Fold change /veh 11764098_at / RFU SAMD14 (11745864_x_at) / Fold change /veh SAMD14 (11745864_x_at) / RFU NPB (11741838_a_at) / Fold change /veh NPB (11741838_a_at) / RFU TMPRSS6 (11731388_a_at) / Fold change /veh TMPRSS6 (11731388_a_at) / RFU KRTAP10-2 (11738614_at) / Fold change /veh KRTAP10-2 (11738614_at) / RFU ARHGAP8 /// PRR5-ARHGAP8 (11727945_x_at) / Fold change /veh ARHGAP8 /// PRR5-ARHGAP8 (11727945_x_at) / RFU KRTAP5-7 /// NADSYN1 (11734609_at) / Fold change /veh KRTAP5-7 /// NADSYN1 (11734609_at) / RFU RASL12 (11751679_a_at) / Fold change /veh RASL12 (11751679_a_at) / RFU CDKN2B (11736163_a_at) / Fold change /veh CDKN2B (11736163_a_at) / RFU PRF1 (11729649_at) / Fold change /veh PRF1 (11729649_at) / RFU, ZNF638 /// ZNF638-IT1 / Fold change vs veh, ZNF638 /// ZNF638-IT1 / RFU, PANK3 / Fold change vs veh, PANK3 / RFU, SH3YL1 / Fold change vs veh, SH3YL1 / RFU, ZEB2 / Fold change vs veh, ZEB2 / RFU, NRIP1 / Fold change vs veh, NRIP1 / RFU, PTTG1IP / Fold change vs veh, PTTG1IP / RFU, CAPN2 / Fold change vs veh, CAPN2 / RFU, MED14 / Fold change vs veh, MED14 / RFU, SNORA58 / Fold change vs veh, SNORA58 / RFU, C1orf63 / Fold change vs veh, C1orf63 / RFU, LRRFIP1 / Fold change vs veh, LRRFIP1 / RFU, NDUFAF7 / Fold change vs veh, NDUFAF7 / RFU, SLC12A2 / Fold change vs veh, SLC12A2 / RFU, IBTK / Fold change vs veh, IBTK / RFU, ESF1 / Fold change vs veh, ESF1 / Fold change vs veh, TMEM50B / RFU, TAOK1 / Fold change vs veh, TAOK1 / RFU, ACBD3 / Fold change vs veh, ACBD3 / RFU, TMA16 / Fold change vs veh, TMA16 / RFU, RWDD3 / Fold change vs veh, RWDD3 / RFU, BCAT1 / Fold change vs veh, BCAT1 / RFU, EDEM3 / Fold change vs veh, EDEM3 / RFU, TMEM33 / Fold change vs veh, TMEM33 / RFU, WDR75 / Fold change vs veh, WDR75 / RFU, AHCTF1 / Fold change vs veh, AHCTF1 / RFU, TFRC / Fold change vs veh, TFRC / RFU, ZDHHC17 / Fold change vs veh, ZDHHC17 / RFU, NOM1 / Fold change vs veh, NOM1 / RFU, ARL8B / Fold change vs veh, ARL8B / RFU, ZBTB11 / Fold change vs veh, ZBTB11 / RFU, TAMM41 / Fold change vs veh, TAMM41 / RFU, KIAA1704 /// LOC100996395 / Fold change vs veh, KIAA1704 /// LOC100996395 / RFU, ING1 / Fold change vs veh, ING1 / RFU, TRMT61B / Fold change vs veh, TRMT61B / RFU, FUBP3 / Fold change vs veh, FUBP3 / RFU, TP53 / Fold change vs veh, TP53 / RFU, TNKS2 / Fold change vs veh, TNKS2 / RFU, ZFP14 / Fold change vs veh, ZFP14 / RFU, ACTR2 / Fold change vs veh, ACTR2 / RFU, PPP3R1 / Fold change vs veh, PPP3R1 / RFU, PIK3R1 / Fold change vs veh, PIK3R1 / RFU, HNRNPA1 / Fold change vs veh, HNRNPA1 / RFU, RNF170 / Fold change vs veh, RNF170 / RFU, ZNF28 / Fold change vs veh, ZNF28 / RFU, RNGTT / Fold change vs veh, RNGTT / RFU, OGT / Fold change vs veh, OGT / RFU, BRD1 / Fold change vs veh, BRD1 / RFU, MARS / Fold change vs veh, MARS / RFU, ZNF655 / Fold change vs veh, ZNF655 / RFU, FAHD1 / Fold change vs veh, FAHD1 / RFU, BDP1 / Fold change vs veh, BDP1 / RFU, LRRCC1 / Fold change vs veh, LRRCC1 / RFU, ARID1A / Fold change vs veh, ARID1A / RFU, ZNF146 / Fold change vs veh, ZNF146 / RFU, ZNF330 / Fold change vs veh, ZNF330 / RFU, GPN3 / Fold change vs veh, GPN3 / RFU, C9orf123 / Fold change vs veh, C9orf123 / RFU, N4BP2L2 / Fold change vs veh, N4BP2L2 / RFU, ARFIP1 / Fold change vs veh, ARFIP1 / RFU, FAM179B / Fold change vs veh, FAM179B / RFU, BCL10 / Fold change vs veh, BCL10 / RFU, UHRF1BP1L / Fold change vs veh, UHRF1BP1L / RFU, BET1 / Fold change vs veh, BET1 / RFU, CNOT2 / Fold change vs veh, CNOT2 / RFU, ZNF268 / Fold change vs veh, ZNF268 / Fold change vs veh, ZNF507 / RFU, DGCR2 / Fold change vs veh, DGCR2 / RFU, WDSUB1 / Fold change vs veh, WDSUB1 / Fold change vs veh, HSP90B1 /// MIR3652 / RFU, ADSS / Fold change vs veh, ADSS / RFU, GK / Fold change vs veh, GK / RFU, ZNF148 / Fold change vs veh, ZNF148 / RFU, TAF9 / Fold change vs veh, TAF9 / RFU, SLC1A5 / Fold change vs veh, SLC1A5 / RFU, SLMO2 / Fold change vs veh, SLMO2 / RFU, ABCC4 / Fold change vs veh, ABCC4 / RFU, LOC101060439 /// RAP1B / Fold change vs veh, LOC101060439 /// RAP1B / RFU, RFX7 / Fold change vs veh, RFX7 / RFU, GTPBP10 / Fold change vs veh, GTPBP10 / RFU, CNEP1R1 / Fold change vs veh, CNEP1R1 / RFU, BIVM-ERCC5 /// ERCC5 / Fold change vs veh, BIVM-ERCC5 /// ERCC5 / RFU, ILF3 / Fold change vs veh, ILF3 / RFU 11762660_at / Fold change /veh 11762660_at / RFU VCAN (11757783_s_at) / Fold change /veh VCAN (11757783_s_at) / RFU DDX43 (11728927_at) / Fold change /veh DDX43 (11728927_at) / RFU KRT8 (11758188_x_at) / Fold change /veh KRT8 (11758188_x_at) / RFU NKD1 (11759106_at) / Fold change /veh NKD1 (11759106_at) / RFU SRD5A1 (11742802_a_at) / Fold change /veh SRD5A1 (11742802_a_at) / RFU TPSAB1 /// TPSB2 (11721975_s_at) / Fold change /veh TPSAB1 /// TPSB2 (11721975_s_at) / RFU GSTM3 (11746129_a_at) / Fold change /veh GSTM3 (11746129_a_at) / RFU IL23R (11737362_x_at) / Fold change /veh IL23R (11737362_x_at) / RFU TMEM51 (11727254_a_at) / Fold change /veh TMEM51 (11727254_a_at) / RFU PIWIL2 (11732686_x_at) / Fold change /veh PIWIL2 (11732686_x_at) / RFU ORM1 (11744905_x_at) / Fold change /veh ORM1 (11744905_x_at) / RFU CCDC152 (11743942_at) / Fold change /veh CCDC152 (11743942_at) / RFU ECM1 (11717891_a_at) / Fold change /veh ECM1 (11717891_a_at) / RFU IL23R (11748794_a_at) / Fold change /veh IL23R (11748794_a_at) / RFU TNFAIP8L3 (11732012_x_at) / Fold change /veh TNFAIP8L3 (11732012_x_at) / RFU MBOAT4 (11741988_at) / Fold change /veh MBOAT4 (11741988_at) / RFU 11764193_at / Fold change /veh 11764193_at / RFU TMEM53 (11763286_at) / Fold change /veh TMEM53 (11763286_at) / RFU MAGEB2 (11727129_at) / Fold change /veh MAGEB2 (11727129_at) / RFU TMEM200A (11744735_a_at) / Fold change /veh TMEM200A (11744735_a_at) / RFU CCDC152 (11751479_a_at) / Fold change /veh CCDC152 (11751479_a_at) / RFU FAM211A (11726209_a_at) / Fold change /veh FAM211A (11726209_a_at) / RFU RGS16 (11746705_a_at) / Fold change /veh RGS16 (11746705_a_at) / RFU VCAN (11755009_s_at) / Fold change /veh VCAN (11755009_s_at) / RFU RHOB (11743442_s_at) / Fold change /veh RHOB (11743442_s_at) / RFU RGS16 (11720943_a_at) / Fold change /veh RGS16 (11720943_a_at) / RFU RGS16 (11720944_at) / Fold change /veh RGS16 (11720944_at) / RFU, VPS4B / Fold change vs veh, VPS4B / RFU, CREB1 / Fold change vs veh, CREB1 / RFU, DNAJC13 / Fold change vs veh, DNAJC13 / RFU, GNAQ / Fold change vs veh, GNAQ / RFU, CDK5R1 / Fold change vs veh, CDK5R1 / RFU, ZRANB3 / Fold change vs veh, ZRANB3 / RFU, CUL4A / Fold change vs veh, CUL4A / RFU, CCNY / Fold change vs veh, CCNY / RFU, UFL1 / Fold change vs veh, UFL1 / RFU, COG3 / Fold change vs veh, COG3 / RFU, DIAPH2 / Fold change vs veh, DIAPH2 / RFU, SKA2 / Fold change vs veh, SKA2 / RFU, AFF3 / Fold change vs veh, AFF3 / RFU, LMF1 / Fold change vs veh, LMF1 / RFU, IPO11 / Fold change vs veh, IPO11 / RFU, DFFB / Fold change vs veh, DFFB / RFU, FOXP1 / Fold change vs veh, FOXP1 / RFU, CARD8 / Fold change vs veh, CARD8 / RFU, STRN3 / Fold change vs veh, STRN3 / RFU, ADK / Fold change vs veh, ADK / RFU, RASSF2 / Fold change vs veh, RASSF2 / RFU, WIPF1 / Fold change vs veh, WIPF1 / RFU, LARP1B / Fold change vs veh, LARP1B / RFU, RASA1 / Fold change vs veh, RASA1 / RFU, RB1 / Fold change vs veh, RB1 / RFU, PPFIA1 / Fold change vs veh, PPFIA1 / RFU, MAT2A / Fold change vs veh, MAT2A / RFU, CCT5 / Fold change vs veh, CCT5 / RFU, WDR92 / Fold change vs veh, WDR92 / RFU, CUX1 / Fold change vs veh, CUX1 / RFU, TTC7A / Fold change vs veh, TTC7A / RFU, TMEM135 / Fold change vs veh, TMEM135 / RFU, DEPTOR / Fold change vs veh, DEPTOR / RFU, CPM / Fold change vs veh, CPM / RFU, DNAJB6 / Fold change vs veh, DNAJB6 / RFU, CACNA2D3 / Fold change vs veh, CACNA2D3 / RFU, DTX4 / Fold change vs veh, DTX4 / RFU, TFCP2 / Fold change vs veh, TFCP2 / RFU, GMCL1 /// GMCL1P1 / Fold change vs veh, GMCL1 /// GMCL1P1 / RFU, AEBP2 / Fold change vs veh, AEBP2 / RFU, SNHG1 /// SNORD22 /// SNORD25 /// SNORD26 /// SNORD27 /// SNORD28 /// SNORD29 /// SNORD31 / Fold change vs veh, SNHG1 /// SNORD22 /// SNORD25 /// SNORD26 /// SNORD27 /// SNORD28 /// SNORD29 /// SNORD31 / Fold change (Aza/veh), C12orf56 (ProbeSet 11735607_a_at) / Fold change (ACY-1035/veh), C12orf56 (ProbeSet 11735607_a_at) / Fold change (Aza/veh), FGFR1OP (ProbeSet 11751329_s_at) / Fold change (ACY-1035/veh), FGFR1OP (ProbeSet 11751329_s_at) / Fold change (Aza/veh), VPS36 (ProbeSet 11739960_a_at) / Fold change (ACY-1035/veh), VPS36 (ProbeSet 11739960_a_at) / RFU SYPL1 (11715823_x_at) / Fold change /veh SYPL1 (11715823_x_at) / RFU IGFBP7 (11715501_s_at) / Fold change /veh IGFBP7 (11715501_s_at) / RFU REEP3 (11722064_at) / Fold change /veh REEP3 (11722064_at) / RFU IGLL1 (11728026_x_at) / Fold change /veh IGLL1 (11728026_x_at): dose or concentration left out as unconfirmed
Settings: ProbeSet 11755159_a_at; LIST D

Nc1ccc(-c2cccs2)cc1NC(=O)c1ccc2c(c1)cc(C1CC1)n2CCN1CCOCC1 [ACY-1035]
RFU, COG3: 86.80 RFU
